Assay results as given in patent publication US5712300A, “Hydroxamic acid derivatives useful for the treatment of diseases related to connective tissue degradation” (priority 1997, dated 1998).
Where a name gives a salt, the structure may show the parent alone.

Columns and labels:
Assay type in all cases: biochemical
[1] = biological target: Gelatinase; assay: MMP inhibition by particle concentration fluorescence technique (gelatinase); conditions: pH 7.5; 15 min enzyme preincubation; substrate 1-3 h at room temperature; read-out: MMP Inhibition Constants, Gelatinase Ki
Procedure, shortened: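 Compound serially diluted two-fold in 50 mM Tris-HCl pH 7.5, 150 mM NaCl, preincubated 15 min with activated enzyme at room temperature. Fluorescein/biotin-tagged substrate then added for 1-3 hours in the dark. Intact substrate captured on avidin-coated particles; fluorescence signal indicates inhibition.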

[2] = biological target: Stromelysin (Homo sapiens, UniProt P08254); assay: MMP inhibition by particle concentration fluorescence technique (stromelysin); conditions: pH 7.5; 15 min enzyme preincubation; substrate 1-3 h at room temperature; read-out: MMP Inhibition Constants, Stromelysin Ki
Procedure, shortened: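 Fluorescein- and biotin-labelled substrate captured on avidin particles after reaction; intact, uncleaved substrate retains fluorescence, so signal rises with inhibition. Activated enzyme incubated with two-fold serial compound dilutions 15 minutes at room temperature.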

[3] = biological target: T1, Collagenase (Homo sapiens, UniProt P03956); assay: MMP inhibition by particle concentration fluorescence technique (collagenase); conditions: pH 7.5; 15 min enzyme preincubation; substrate 1-3 h at room temperature; read-out: MMP Inhibition Constants, Collagenase Ki
T1 sequence (P03956 100-469): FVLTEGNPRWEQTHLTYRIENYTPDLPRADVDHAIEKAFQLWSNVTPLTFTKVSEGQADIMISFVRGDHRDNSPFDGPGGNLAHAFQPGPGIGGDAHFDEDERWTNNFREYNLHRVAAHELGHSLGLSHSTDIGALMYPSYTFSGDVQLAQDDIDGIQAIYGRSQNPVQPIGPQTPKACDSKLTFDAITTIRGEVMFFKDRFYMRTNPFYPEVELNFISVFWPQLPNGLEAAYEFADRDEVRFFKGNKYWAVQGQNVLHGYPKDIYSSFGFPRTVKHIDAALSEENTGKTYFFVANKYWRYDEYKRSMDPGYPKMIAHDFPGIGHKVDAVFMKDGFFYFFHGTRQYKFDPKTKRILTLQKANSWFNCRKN
Protocol: Inhibitory activity is evaluated in one or more of the MMP enzymes (stromelysin, gelatinase, and collagenase) in vitro using a particle concentration fluorescence techniques. An inhibitor binds to MMP enzymes prevents the degradation of a substrate of stromelysin, gelatinase, or collagenase. The substrate is attached with a fluorescein and a biotin. The intact substrate then binds to an avidin-coated particle via the biotin moiety. Once the particle is washed and dried, a fluorescent signal is generated since the fluorescent group is attached to the particle. Without an inhibitor present, the substrate is degraded by MMP enzymes and the fluorescein group is removed, therefore, no fluorescent signal can be detected. Testing compounds are dissolved in DMSO to the desired concentration, then the solutions are diluted to 1:5 with MMP buffer (50 mM Tris-HCl, pH 7.5; 150 mM NaCl; 0.02% NAN3). Serial two-fold dilutions of each compound are prepared. A concentrated, activated enzyme solution is transferred into each plate of the testing compounds, and the mixture is incubated at room temperature for 15 minutes. Thawed MMP substrate is then added into all plates, and the plates are incubate in the dark for 1-3 hours at room temperature. At this point, the substrate mixture is reacted with 0.1% avidin-coated polystyrene particles.

Stromelysin, sequence (P08254 100-477): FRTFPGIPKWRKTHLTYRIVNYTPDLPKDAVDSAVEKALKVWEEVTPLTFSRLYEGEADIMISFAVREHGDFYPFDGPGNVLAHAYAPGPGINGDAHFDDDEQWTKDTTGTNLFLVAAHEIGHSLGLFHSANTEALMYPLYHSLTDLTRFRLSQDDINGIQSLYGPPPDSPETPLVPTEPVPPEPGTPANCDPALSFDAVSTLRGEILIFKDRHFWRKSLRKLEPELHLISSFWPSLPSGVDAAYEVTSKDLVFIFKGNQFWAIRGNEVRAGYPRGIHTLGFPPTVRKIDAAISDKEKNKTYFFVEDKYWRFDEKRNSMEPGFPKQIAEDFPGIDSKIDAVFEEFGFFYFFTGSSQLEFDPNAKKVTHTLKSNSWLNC

Structure (SMILES) | Ki [1] [nM] | Ki [2] [nM] | Ki [3] [nM]
CC(C)C[C@@]1(CC(=O)NO)CCN([C@@H](Cc2ccccc2)C(=O)N2C[C@@H](C)N[C@@H](C)C2)C1=O (relative stereo) [Example 56, [1(1S)-[1[R*(R*)],3α,5α]]-1-[2-(3,5-Dimethyl-1-piperazinyl)-2-oxo-1-(phenylmethyl)ethyl]-N-hydroxy-3-(2-methylpropyl)-2-oxo-3-pyrrolidineacetamide] | 340 | 2300 | 925
CC(C)CC1(CC(=O)NO)CNN(CCc2ccccc2)C1=O (stereo not drawn) [Example 38, N-Hydroxyl-4-(2-methylpropyl)-5-oxo-1-(2-phenylethyl)-4-pyrazolidineacetamide monohydrochloride] | 14500 | 31200 | 13300
CC(C)C[C@@]1([C@@H](CN2C(=O)c3ccccc3C2=O)C(=O)NO)CCN(CCc2ccccc2)C1=O (relative stereo) [Example 16, α-[2-(1,3-Dihydro-1,3-dioxo-2H-isoindol-2-yl)methyl]-N-hydroxy-3-(2-methylpropyl)-2-oxo-1-(2-phenylethyl)-3-pyrrolidineacetamide] | 2870 | 92.4 | 14200
CC(C)C[C@@]1([C@H](CCN2C(=O)c3ccccc3C2=O)C(=O)NO)CCN(CCc2ccc(F)cc2)C1=O (relative stereo) [Example 72, 1,3-Dihydro-N-hydroxy-α-[3-(2-methylpropyl)-2-oxo-1-[2-(4-fluorophenyl)ethyl]-3-pyrrolidinyl]-1,3-dioxo-2H-isoindole-2-butanamide] | 83 | 640 | 39

Second part, the molecule after the results:

Ki [1] [nM] | Ki [2] [nM] | Ki [3] [nM] | Structure (SMILES)
580 | 107 | 17000 | CC(C)C[C@@]1([C@@H](CCNS(=O)(=O)c2ccccc2)C(=O)NO)CCN(CCc2ccccc2)C1=O (relative stereo) [Example 83, N-Hydroxy-3-(2-methylpropyl)-2-oxo-1-(2-phenylethyl)-α-[2-[(phenylsulfonyl)amino]ethyl]-3-pyrrolidineacetamide]
21 | 52 | 26 | CC(C)C[C@@]1([C@@H](CCNC(=O)c2cccc(F)c2)C(=O)NO)CCN(CCc2ccccc2)C1=O [Example 74, [R-(R*,S*)-α-[2-[(3-Fluorobenzoyl)amino]ethyl]-N-hydroxy-3-(2-methylpropyl)-2-oxo-1-(2-phenylethyl)-3-pyrrolidineacetamide]
264 | 295 | 74 | CC(C)C[C@@]1([C@@H](CCNC(=O)c2ccc(F)cc2)C(=O)NO)CCN(CCc2ccccc2)C1=O (relative stereo) [Example 75, α-[2-[(4-Fluorobenzoyl)amino]ethyl]-N-hydroxy-3-(2-methylpropyl)-2-oxo-1-(2-phenylethyl)-3-pyrrolidineacetamide]
1.77 | 38 | 339 | CC(C)C[C@@]1([C@@H](CCNC(=O)c2ccc(-c3ccccc3)cc2)C(=O)NO)CCN(CCc2ccccc2)C1=O (relative stereo) [Example 79, α-[2-[(4-Biphenylcarbonyl)amino]ethyl]-N-hydroxy-3-(2-methylpropyl)-2-oxo-1-(2-phenylethyl)-3-pyrrolidineacetamide]
0.98 | 8.7 | 12.7 | O=C(NCC[C@@H](C(=O)NO)[C@]1(CCCO)CCN(CCc2ccccc2)C1=O)c1cccc(F)c1 [Example 96, [R-(R*,S*)]-α-[2-[(3-Fluorebenzoyl)amino]ethyl]-N-hydroxy-3-(3-hydroxypropyl)-2-oxo-1-(2-phenylethyl)-3-pyrrolidineacetamide]
782 | 188 | 21300 | CC(C)C[C@@]1([C@@H](CCCN2C(=O)c3ccccc3C2=O)C(=O)NO)CCN(CCc2ccccc2)C1=O (relative stereo) [Example 15]
